The record followed here is US10233191B2, “Fused piperidine amides as modulators of ion channels” (Vertex Pharmaceuticals Incorporated, priority 2013, dated 2019).

In the experiment the target is T1, NaV 1.7 (Homo sapiens, UniProt Q15858).
T1 construct: expressed in transfected cells; host or cells: HEK cells
Description: E-VIPR optical membrane potential assay with electrical stimulation. The conditions noted are these: active against one or more sodium channels; assay/subtype not specified in Table 4; read-out: IC50 Binned Activity Data. Type of experiment: cell-based. An excerpt:
E-VIPR Optical Membrane Potential Assay Method with Electrical Stimulation
Sodium channels are voltage-dependent proteins that can be activated by inducing membrane voltage changes by applying electric fields. The electrical stimulation instrument and methods of use are described in Ion Channel Assay Methods PCT/US01/21652, herein incorporated by reference and are referred to as E-VIPR. The instrument comprises a microtiter plate handler, an optical system for exciting the coumarin dye while simultaneously recording the coumarin and oxonol emissions, a waveform generator, a current- or voltage-controlled amplifier, and a device for inserting electrodes in well. Under integrated computer control, this instrument passes user-programmed electrical stimulus protocols to cells within the wells of the microtiter plate.
24 hours before the assay on E-VIPR, HEK cells expressing human NaV subtype, like NaV 1.7, are seeded in 384-well poly-lysine coated plates at 15,000-20,000 cells per well. Other subtypes are performed in an analogous mode in a cell line expressing the NaV of interest. HEK cells are grown in media (exact composition is specific to each cell type and NaV subtype) supplemented with 10% FBS (Fetal Bovine Serum, qualified; GibcoBRL #16140-071) and 1% Pen-Strep (Penicillin-Streptomycin; GibcoBRL #15140-122). Cells are grown in vented cap flasks, in 90% humidity and 10% CO2, to 100% confluence. They are usually split by trypsinization 1:10 or 1:20, depending on scheduling needs, and grown for 2-3 days before the next split.
• 100 mg/mL Pluronic F-127 (Sigma #P2443), in dry DMSO • Compound Plates: 384-well round bottom plate, e.g. Corning 384-well Polypropylene Round Bottom #3656 • Cell Plates: 384-well tissue culture treated plate, e.g. Greiner #781091-1B • 10 mM DiSBAC6(3) (Aurora #00-100-010) in dry DMSO • 10 mM CC2-DMPE (Aurora #00-100-008) in dry DMSO • 200 mM ABSC1 in H2O
Bath1 buffer. Glucose 10 mM (1.8 g/L), Magnesium Chloride (Anhydrous), 1 mM (0.095 g/L), Calcium Chloride, 2 mM (0.222 g/L), HEPES 10 mM (2.38 g/L), Potassium Chloride, 4.5 mM (0.335 g/L), Sodium Chloride 160 mM (9.35 g/L).
Hexyl Dye Solution: Bath1 Buffer+0.5% β-cyclodextrin (make this prior to use, Sigma #C4767), 8 μM CC2-DMPE+2.5 μM DiSBAC6(3). To make the solution Add volume of 10% Pluronic F127 stock equal to volumes of CC2-DMPE+DiSBAC6(3). The order of preparation is first mix Pluronic and CC2-DMPE, then add DiSBAC6(3) while vortexing, then add Bath1+β-Cyclodextrin.
1) Pre-spot compounds (in neat DMSO) into compound plates. Vehicle control (neat DMSO), the positive control (20 mM DMSO stock tetracaine, 125 μM final in assay) and test compounds are added to each well at 160× desired final concentration in neat DMSO. Final compound plate volume will be 80 μL (80-fold intermediate dilution from 1 μL DMSO spot; 160-fold final dilution after transfer to cell plate). Final DMSO concentration for all wells in assay is 0.625%.
2) Prepare Hexyl Dye Solution.
3) Prepare cell plates. On the day of the assay, medium is aspirated and cells are washed three times with 100 μL of Bath1 Solution, maintaining 25 μL residual volume in each well.
4) Dispense 25 μL per well of Hexyl Dye Solution into cell plates. Incubate for 20-35 minutes at room temp or ambient conditions.
5) Dispense 80 μL per well of Bath1 into compound plates. Acid Yellow-17 (1 mM) is added and Potassium Chloride can be altered from 4.5 to 20 mM depending on the NaV subtype and assay sensitivity.
6) Wash cell plates three times with 100 μL per well of Bath1, leaving 25 μL of residual volume. Then transfer 25 uL per well from Compound Plates to Cell Plates. Incubate for 20-35 minutes at room temp/ambient condition
7) Read Plate on E-VIPR. Use the current-controlled amplifier to deliver stimulation wave pulses for typically 9 seconds and a scan rate of 400 Hz. A pre-stimulus recording is performed for 0.5 seconds to obtain the un-stimulated intensities baseline. […]

T1 sequence (Q15858 whole entry): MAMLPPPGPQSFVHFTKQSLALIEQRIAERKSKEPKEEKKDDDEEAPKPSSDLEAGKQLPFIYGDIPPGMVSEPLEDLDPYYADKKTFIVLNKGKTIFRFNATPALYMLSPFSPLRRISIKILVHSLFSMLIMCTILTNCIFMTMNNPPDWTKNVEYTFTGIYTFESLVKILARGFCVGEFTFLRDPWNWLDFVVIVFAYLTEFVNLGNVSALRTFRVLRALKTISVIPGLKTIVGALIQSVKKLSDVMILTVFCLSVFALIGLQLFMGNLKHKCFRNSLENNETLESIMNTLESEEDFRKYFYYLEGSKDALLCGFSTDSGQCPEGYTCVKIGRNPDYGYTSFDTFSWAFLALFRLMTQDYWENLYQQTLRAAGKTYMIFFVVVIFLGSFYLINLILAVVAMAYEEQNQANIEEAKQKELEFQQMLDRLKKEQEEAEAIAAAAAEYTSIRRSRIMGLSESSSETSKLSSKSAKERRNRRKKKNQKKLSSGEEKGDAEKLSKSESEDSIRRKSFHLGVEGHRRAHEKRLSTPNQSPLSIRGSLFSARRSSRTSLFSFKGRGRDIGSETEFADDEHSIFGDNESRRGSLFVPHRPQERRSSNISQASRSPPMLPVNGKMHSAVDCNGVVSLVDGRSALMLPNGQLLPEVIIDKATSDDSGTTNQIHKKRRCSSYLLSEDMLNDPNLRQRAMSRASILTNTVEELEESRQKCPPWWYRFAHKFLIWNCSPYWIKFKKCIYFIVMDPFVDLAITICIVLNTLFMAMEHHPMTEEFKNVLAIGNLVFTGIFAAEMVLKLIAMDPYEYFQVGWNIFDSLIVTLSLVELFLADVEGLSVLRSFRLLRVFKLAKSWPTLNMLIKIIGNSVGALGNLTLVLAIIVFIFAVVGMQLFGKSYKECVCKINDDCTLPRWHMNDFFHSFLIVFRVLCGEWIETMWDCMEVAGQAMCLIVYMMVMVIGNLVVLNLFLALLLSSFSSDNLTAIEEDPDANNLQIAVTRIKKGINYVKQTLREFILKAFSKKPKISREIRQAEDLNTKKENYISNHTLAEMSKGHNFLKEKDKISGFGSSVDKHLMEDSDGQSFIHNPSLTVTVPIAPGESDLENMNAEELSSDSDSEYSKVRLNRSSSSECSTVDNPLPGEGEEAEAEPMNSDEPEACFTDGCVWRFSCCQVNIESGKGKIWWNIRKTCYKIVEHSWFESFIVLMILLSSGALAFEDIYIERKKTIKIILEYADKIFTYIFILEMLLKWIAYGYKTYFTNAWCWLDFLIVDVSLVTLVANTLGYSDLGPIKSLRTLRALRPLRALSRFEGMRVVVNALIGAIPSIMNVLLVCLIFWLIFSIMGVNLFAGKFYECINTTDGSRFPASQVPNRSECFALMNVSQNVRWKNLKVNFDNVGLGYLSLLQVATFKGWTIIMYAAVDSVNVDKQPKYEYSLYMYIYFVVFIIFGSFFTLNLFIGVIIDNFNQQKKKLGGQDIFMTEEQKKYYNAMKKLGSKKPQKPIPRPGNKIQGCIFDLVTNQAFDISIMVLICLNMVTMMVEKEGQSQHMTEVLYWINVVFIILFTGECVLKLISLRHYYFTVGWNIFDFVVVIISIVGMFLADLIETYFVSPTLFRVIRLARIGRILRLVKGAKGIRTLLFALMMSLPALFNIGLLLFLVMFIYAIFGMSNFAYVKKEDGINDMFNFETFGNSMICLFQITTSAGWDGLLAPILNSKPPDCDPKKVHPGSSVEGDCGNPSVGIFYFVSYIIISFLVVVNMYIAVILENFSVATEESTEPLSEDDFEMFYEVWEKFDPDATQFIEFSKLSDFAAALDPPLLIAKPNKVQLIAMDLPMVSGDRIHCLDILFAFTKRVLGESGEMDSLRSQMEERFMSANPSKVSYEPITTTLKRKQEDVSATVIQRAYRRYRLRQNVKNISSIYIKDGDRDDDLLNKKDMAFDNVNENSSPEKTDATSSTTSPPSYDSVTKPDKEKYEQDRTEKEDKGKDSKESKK

Regarding `CC(C)(F)COc1ccc(C(=O)N2CC[C@@]3(c4ccccn4)CO[C@H]3C2)cc1C(F)(F)F` [Compound 205], the half-inhibitory concentration (IC50) – broadly, the midpoint of a concentration-inhibition curve – was greater than 5000 nM. Take `COc1nc(C(=O)N2CC[C@]3(c4cc(F)ccc4F)OCOC3C2)ccc1OCCOC(F)(F)F` (some centres unmarked) [Compound 289]: the IC50 is no more than 2000 nM.

In the case of `Cc1cc(C(=O)N2CC[C@]3(c4cc(C(F)(F)F)ccn4)OCOC3C2)ccc1OCC(C)(C)F` (some centres unmarked) [Compound 2], the IC50 is no more than 2000 nM. For `CC(C)(C)COc1ccc(C(=O)N2CC[C@]3(c4ccccn4)OCOC3C2)cc1Cl` (some centres unmarked) [Compound 121], the IC50 was no more than 2000 nM. With `COc1ccnc([C@]23CCN(C(=O)c4ccc(OCC5CC(F)(F)C5)c(OC)c4)CC2OCO3)c1` (some centres unmarked) [Compound 203], the IC50 is no more than 2000 nM. Turning to `COc1nc(C(=O)N2CC[C@]3(c4cccc(F)c4)OCOC3C2)ccc1OCC(F)(F)C(F)F` (some centres unmarked) [Compound 185], the IC50 was no more than 2000 nM.

In the case of `COc1cc(C(=O)N2CC[C@]3(c4cc(F)ccc4F)OCOC3C2)ccc1OCC1CC(F)(F)C1` (some centres unmarked) [Compound 288], the IC50 is no more than 2000 nM. Then `COc1cc(C(=O)N2CC[C@]3(c4cccc(F)c4F)OCOC3C2)ccc1OCCOC(F)(F)F` (some centres unmarked) [Compound 186], with no more than 2000 nM. In the case of `Cc1cc(C(=O)N2CC[C@@]3(c4ccccc4)OCOC3C2)ccc1OCC(C)(C)O` (some centres unmarked) [Compound 73], the IC50 is no more than 2000 nM.

As for `Cc1cc(C(=O)N2CC[C@]3(c4ccccc4)OCOC3C2)ccc1OCC(C)(C)O` (some centres unmarked) [Compound 75], the IC50 was no more than 2000 nM.

Take `COc1cc(C(=O)N2CC[C@]3(c4cc(C(F)(F)F)ccn4)OCOC3C2)ccc1OCC(F)(F)C(F)F` (some centres unmarked) [Compound 197]: the IC50 is no more than 2000 nM. As for `COc1cc(C(=O)N2CCC3(c4ccccn4)C(C2)C3(F)F)ccc1OCC1CC(F)(F)C1` (centres unmarked) [Compound 259], the half-maximal inhibitory concentration (IC50) is no more than 2000 nM. Take `Cc1cc(C(=O)N2CC[C@@]3(c4ccccc4)OCOC3C2)ccc1OC(C)C` (some centres unmarked) [Compound 81]: the IC50 was 2000 to 5000 nM. Then `O=C(c1ccc(OCC(F)(F)C(F)F)c(C(F)(F)F)c1)N1CC[C@]2(c3ccccn3)OCOC2C1` (some centres unmarked) [Compound 123], with no more than 2000 nM; and `COc1cc(C(=O)N2CCC3(c4ccc(F)cc4)CC3C2)ccc1OCCOC(F)(F)F` (centres unmarked) [Compound 300], with no more than 2000 nM; and `Cc1nc([C@]23CCN(C(=O)c4ccc(OCCOC(F)(F)F)c(C)c4)CC2OCO3)cs1` (some centres unmarked) [Compound 144], with no more than 2000 nM.

As to `CCOc1nc(C(=O)N2CC[C@]3(c4cccc(F)c4)OCOC3C2)ccc1OCCOC(F)(F)F` (some centres unmarked) [Compound 249], the half-inhibitory concentration (IC50) was no more than 2000 nM.

As for `COc1cc(C(=O)N2CC[C@@]3(c4ccn(C)n4)OCOC3C2)ccc1OCCOC(F)(F)F` (some centres unmarked) [Compound 46], the IC50 is no more than 2000 nM.

For `O=C(c1ccc(OCC2CC2(F)F)c(Cl)c1)N1CC[C@]2(c3ccccn3)OCOC2C1` (some centres unmarked) [Compound 135], the IC50 was no more than 2000 nM. Regarding `Cc1cc(C(=O)N2CC[C@]3(c4ncccc4Cl)OCOC3C2)ccc1OCCOC(F)(F)F` (some centres unmarked) [Compound 182], the 50% inhibitory concentration (IC50) is no more than 2000 nM.

For the compound `O=C(c1ccc(OCC2CC2(F)F)c(C(F)(F)F)c1)N1CC[C@]2(c3ccccn3)OCOC2C1` (some centres unmarked) [Compound 84], the IC50 was no more than 2000 nM. Then `[2H]C1([2H])OC2CN(C(=O)c3ccc(OCCOC(F)(F)F)c(OC)c3)CC[C@]2(c2ccccn2)O1` (some centres unmarked) [Compound 305], with no more than 2000 nM; and `COc1cc(C(=O)N2CCC3(c4ccc(F)cc4)CC3C2)ccc1OCC1CC(F)(F)C1` (centres unmarked) [Compound 298], with no more than 2000 nM. Regarding `[2H]C1([2H])OC2CN(C(=O)c3ccc(OC(C)C(F)(F)F)c(OC)c3)CC[C@]2(c2cc(F)cc(F)c2)O1` (some centres unmarked) [Compound 173], the IC50 was no more than 2000 nM. Consider `COc1cc(C(=O)N2CCC3(c4ccccc4)CC3C2)ccc1OCC1CCCO1` (centres unmarked) [Compound 65], for which the IC50 was no more than 2000 nM. In the case of `COc1nc(C(=O)N2CCC3(c4ccccc4)CC3C2)ccc1OCC(C)(C)O` (centres unmarked) [Compound 60], the IC50 is no more than 2000 nM. With `COc1cc(C(=O)N2CC[C@@]3(c4ccccc4)OCOC3C2)ccc1OCC(C)(C)O` (some centres unmarked) [Compound 8], the IC50 is greater than 5000 nM. As to `CCS(=O)(=O)c1ccc(C(=O)N2CCC3(c4ccccc4)CC3C2)cc1C` (centres unmarked) [Compound 15], the IC50 fell in the range of 2000 to 5000 nM. Take `COc1cc(Cl)nc([C@]23CCN(C(=O)c4ccc(OCCOC(F)(F)F)c(OC)c4)CC2OCO3)c1` (some centres unmarked) [Compound 221]: the IC50 is no more than 2000 nM. `COc1cc(C(=O)N2CC[C@]3(c4ccccc4)OCOC3C2)ccc1OC(C)C(F)(F)F` (some centres unmarked) [Compound 117]: the IC50 is no more than 2000 nM. Consider `COc1cc(C(=O)N2CC[C@]3(c4cccc(Cl)c4)OCOC3C2)ccc1O[C@@H](C)C(F)(F)F` (some centres unmarked) [Compound 244], for which the IC50 was no more than 2000 nM. On to `O=C(c1ccc(C2(O)CCC2)cc1)N1CCC2(c3ccccc3)CC2C1` (centres unmarked) [Compound 28], for which the IC50 is no more than 2000 nM. Regarding `[2H]C1([2H])OC2CN(C(=O)c3ccc(OCC4CCC4)c(OC)n3)CC[C@]2(c2cccc(F)c2)O1` (some centres unmarked) [Compound 284], the IC50 is no more than 2000 nM.

For `COc1nc(C(=O)N2CC[C@]3(c4cccc(F)c4)OCOC3C2)ccc1OCCC1CC(F)(F)C1` (some centres unmarked) [Compound 200], the IC50 is no more than 2000 nM. As to `O=C(c1ccc(OCCOC(F)(F)F)c(Cl)c1)N1CCC2(c3ccc(F)cc3)CC2C1` (centres unmarked) [Compound 301], the IC50 is no more than 2000 nM. In the case of `Cc1cc(C(=O)N2CC[C@]3(c4cscn4)OCOC3C2)ccc1OCC(C)(C)F` (some centres unmarked) [Compound 52], the IC50 was in the range of 2000 to 5000 nM.

Regarding `COc1cc(C(=O)N2CCC3(c4ccccc4)OCC3C2)ccc1OCCOC(F)(F)F` (centres unmarked) [Compound 55], the IC50 was no more than 2000 nM. Turning to `CCOc1nc(C(=O)N2CC[C@]3(c4csc(C)n4)OCOC3C2)ccc1OCCOC(F)(F)F` (some centres unmarked) [Compound 103], the IC50 was no more than 2000 nM.

For `Cc1cc(C(=O)N2CC[C@]3(c4ccccn4)OCOC3C2)ccc1OCC(C)(C)O` (some centres unmarked) [Compound 25], the IC50 is 2000 to 5000 nM. As for `COc1cc(C(=O)N2CC[C@]3(c4ccccn4)OCOC3C2)ccc1COCC(F)(F)F` (some centres unmarked) [Compound 50], the IC50 is no more than 2000 nM. On to `COc1nc(C(=O)N2CC[C@]3(c4cccc(Cl)c4)OCOC3C2)ccc1OCCOC(F)(F)F` (some centres unmarked) [Compound 183], for which the IC50 was no more than 2000 nM. In the case of `COc1cc(C(=O)N2CC[C@]3(c4ccccn4)OCO[C@@H]3C2)ccc1OC(C)C(F)(F)F` (some centres unmarked) [Compound 72], the IC50 was no more than 2000 nM. Regarding `COc1cc(C(=O)N2CC[C@@]3(c4ccccn4)COCC3C2)ccc1OCCOC(F)(F)F` (some centres unmarked) [Compound 278], the IC50 was no more than 2000 nM. For `[2H]C1([2H])OC2CN(C(=O)c3ccc(OCC4CC(F)(F)C4)c(OC)n3)CC[C@]2(c2cccc(F)c2)O1` (some centres unmarked) [Compound 279], the IC50 was no more than 2000 nM.

In the case of `COc1nc(C(=O)N2CC[C@]3(c4ncccc4F)OCOC3C2)ccc1OCCOC(F)(F)F` (some centres unmarked) [Compound 96], the IC50 was no more than 2000 nM. As to `COc1nc(C(=O)N2CC[C@]3(c4cccc(F)c4)OCOC3C2)ccc1OCC1CC(F)(F)C1` (some centres unmarked) [Compound 180], the IC50 is no more than 2000 nM. `COc1cc(C(=O)N2CC[C@]3(c4ccccc4)OCOC3C2)ccc1OCCOC(F)(F)F` (some centres unmarked) [Compound 150]: the IC50 was no more than 2000 nM.
